Series [1] addresses T1, Albumin (Bos taurus, UniProt P02769). Nature of the series: Binding affinity to bovine serum albumin assessed as Stem-Volmer quenching constant by fluorescence based Stern-Volmer plot analysis. As to conditions: cattle.
Series [2] has as its target T1, Albumin. Nature of the series: Binding affinity to bovine serum albumin assessed as binding constant by fluorescence based Stern-Volmer plot analysis. The conditions noted are these: cattle.
A short description of series [3]: Drug uptake in human MCF7 cells at 10 uM incubated for 2 hrs by fluorescence based assay. The class given is ADME, cell-based. As to conditions: mcf7, 2 h.
The nature of series [4]: Drug uptake in human MCF7 cells at 10 uM incubated for 24 hrs by fluorescence based assay. The series is classed as ADME, cell-based. As to conditions: mcf7, 24 h.

T1 sequence (P02769 whole entry): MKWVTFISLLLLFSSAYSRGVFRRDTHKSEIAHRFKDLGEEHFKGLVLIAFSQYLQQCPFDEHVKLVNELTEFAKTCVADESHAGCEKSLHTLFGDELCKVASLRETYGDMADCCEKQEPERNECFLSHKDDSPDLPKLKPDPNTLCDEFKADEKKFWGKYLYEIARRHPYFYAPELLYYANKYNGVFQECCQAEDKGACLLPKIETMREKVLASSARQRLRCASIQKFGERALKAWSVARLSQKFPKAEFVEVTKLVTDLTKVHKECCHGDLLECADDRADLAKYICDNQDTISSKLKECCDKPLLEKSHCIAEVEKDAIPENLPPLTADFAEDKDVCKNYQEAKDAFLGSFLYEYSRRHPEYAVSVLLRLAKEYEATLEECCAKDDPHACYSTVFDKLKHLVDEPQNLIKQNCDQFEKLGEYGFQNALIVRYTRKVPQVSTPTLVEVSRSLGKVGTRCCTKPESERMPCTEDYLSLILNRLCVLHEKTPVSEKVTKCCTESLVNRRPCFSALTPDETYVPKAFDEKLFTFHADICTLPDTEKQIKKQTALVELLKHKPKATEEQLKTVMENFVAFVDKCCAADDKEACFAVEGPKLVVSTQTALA

In the case of `CC(=O)NC1=Cc2nc1c(-c1ccccc1)c1ccc([nH]1)c(-c1ccccc1)c1nc(c(-c3ccccc3)c3ccc([nH]3)c2-c2ccccc2)C=C1`, the KSV in series [1] is recorded as 4.33 10^4L/mol. In addition, in series [2], the Ka is listed as 2.86 10^4L/mol. Also, the Drug uptake is reported as 3.3 10^-2microM in series [3] and 4.3 10^-2microM in series [4].
For `CCCCCCCCCCCCCCCC(=O)NC1=Cc2nc1c(-c1ccccc1)c1ccc([nH]1)c(-c1ccccc1)c1nc(c(-c3ccccc3)c3ccc([nH]3)c2-c2ccccc2)C=C1` the same measures were 3.03 10^4L/mol, 1.98 10^4L/mol, 1.7 10^-2microM and 1.7 10^-2microM.
For `CCCCCCCCCCCCCCCC(=O)Nc1ccc(-c2c3nc(c(-c4ccccc4)c4ccc([nH]4)c(-c4ccccc4)c4nc(c(-c5ccccc5)c5ccc2[nH]5)C=C4)C=C3)cc1` the same measures were 4.09 10^4L/mol, 3.12 10^4L/mol, 3 10^-2microM and 4.4 10^-2microM.
For `CC(=O)Nc1ccc(-c2c3nc(c(-c4ccccc4)c4ccc([nH]4)c(-c4ccccc4)c4nc(c(-c5ccccc5)c5ccc2[nH]5)C=C4)C=C3)cc1` the same measures were 4.96 10^4L/mol, 3.84 10^4L/mol, 5.8 10^-2microM and 5.8 10^-2microM.
